System: MV-4-11 cells
Test: Gene expression microarray analysis (Affymetrix PrimeView) and GSEA
Type: cell-based, human
Parameters: RFU PODN (11730768_x_at) / Fold change /veh PODN (11730768_x_at) / RFU LINC00158 (11744669_a_at) / Fold change /veh LINC00158 (11744669_a_at) / RFU DUSP10 (11751237_a_at) / Fold change /veh DUSP10 (11751237_a_at) / RFU ID3 (11757404_x_at) / Fold change /veh ID3 (11757404_x_at) / RFU PLEKHG5 (11737974_s_at) / Fold change /veh PLEKHG5 (11737974_s_at) / RFU LRRC4B (11730491_at) / Fold change /veh LRRC4B (11730491_at) / RFU GIMAP4 (11747438_a_at) / Fold change /veh GIMAP4 (11747438_a_at) / RFU KRT8 (11758183_x_at) / Fold change /veh KRT8 (11758183_x_at) / RFU CNN1 (11734310_a_at) / Fold change /veh CNN1 (11734310_a_at) / RFU VPS37D (11726825_at) / Fold change /veh VPS37D (11726825_at) / RFU C10orf10 (11716522_x_at) / Fold change /veh C10orf10 (11716522_x_at) / RFU KIR2DL2 /// KIR2DL4 /// KIR2DL5A /// KIR2DL5B /// KIR2DS1 /// KIR2DS2 /// KIR2DS3 /// KIR2DS4 /// KIR3DL3 /// KIR3DL3 /// KIR3DS1 (11738374_at) / Fold change /veh KIR2DL2 /// KIR2DL4 /// KIR2DL5A /// KIR2DL5B /// KIR2DS1 /// KIR2DS2 /// KIR2DS3 /// KIR2DS4 /// KIR3DL3 /// KIR3DL3 /// KIR3DS1 (11738374_at) / RFU C1QL1 (11718748_at) / Fold change /veh C1QL1 (11718748_at) / RFU TMPRSS4 (11747572_a_at) / Fold change /veh TMPRSS4 (11747572_a_at) / RFU HAMP (11756126_x_at) / Fold change /veh HAMP (11756126_x_at) / RFU RNFT2 (11725882_a_at) / Fold change /veh RNFT2 (11725882_a_at) / RFU NR4A2 (11747474_a_at) / Fold change /veh NR4A2 (11747474_a_at) / RFU ABCC12 (11746883_a_at) / Fold change /veh ABCC12 (11746883_a_at) / RFU TMEM136 (11760407_x_at) / Fold change /veh TMEM136 (11760407_x_at) / RFU CLDN22 /// WWC2 (11732394_at) / Fold change /veh CLDN22 /// WWC2 (11732394_at) / RFU HLA-DPB1 (11760878_x_at) / Fold change /veh HLA-DPB1 (11760878_x_at) / RFU SPINT1 (11716480_a_at) / Fold change /veh SPINT1 (11716480_a_at) / RFU GAP43 (11754022_s_at) / Fold change /veh GAP43 (11754022_s_at) / RFU A4GNT (11735810_at) / Fold change /veh A4GNT (11735810_at) / RFU PRB3 (11715151_x_at) / Fold change /veh PRB3 (11715151_x_at) / RFU TUBB4B (11761932_at) / Fold change /veh TUBB4B (11761932_at) / RFU CAPN14 (11732068_a_at) / Fold change /veh CAPN14 (11732068_a_at) / RFU TMCC2 (11721928_a_at) / Fold change /veh TMCC2 (11721928_a_at) / RFU IRGQ (11745062_a_at) / Fold change /veh IRGQ (11745062_a_at) / RFU FAM174B (11720279_a_at) / Fold change /veh FAM174B (11720279_a_at) / RFU TMPRSS4 (11748680_a_at) / Fold change /veh TMPRSS4 (11748680_a_at) / RFU FAM212B (11763350_a_at) / Fold change /veh FAM212B (11763350_a_at) / RFU PLEKHG5 (11743358_a_at) / Fold change /veh PLEKHG5 (11743358_a_at) / RFU ZSCAN30 (11745921_a_at) / Fold change /veh ZSCAN30 (11745921_a_at) / RFU CMKLR1 (11741424_a_at) / Fold change /veh CMKLR1 (11741424_a_at) / RFU LOC101060620 /// MAPK8IP1 (11723275_at) / Fold change /veh LOC101060620 /// MAPK8IP1 (11723275_at) / RFU SPTSSB (11747773_x_at) / Fold change /veh SPTSSB (11747773_x_at) / RFU PRSS12 (11739890_at) / Fold change /veh PRSS12 (11739890_at) / RFU BIN1 (11741810_x_at) / Fold change /veh BIN1 (11741810_x_at) / RFU WNT11 (11732464_a_at) / Fold change /veh WNT11 (11732464_a_at) / RFU C10orf10 (11716521_a_at) / Fold change /veh C10orf10 (11716521_a_at) / RFU C5orf56 (11738089_at) / Fold change /veh C5orf56 (11738089_at) / RFU CYB561 (11721691_x_at) / Fold change /veh CYB561 (11721691_x_at) / RFU ANKRD19P (11752326_a_at) / Fold change /veh ANKRD19P (11752326_a_at) / RFU OR2T12 /// OR2T33 /// OR2T8 (11738714_s_at) / Fold change /veh OR2T12 /// OR2T33 /// OR2T8 (11738714_s_at) / RFU VCAN (11748164_a_at) / Fold change /veh VCAN (11748164_a_at) / RFU JSRP1 (11732532_at) / Fold change /veh JSRP1 (11732532_at) / RFU KRTAP10-11 (11738290_x_at) / Fold change /veh KRTAP10-11 (11738290_x_at) / RFU MYO3A (11730013_a_at) / Fold change /veh MYO3A (11730013_a_at) / RFU EBF3 (11725865_a_at) / Fold change /veh EBF3 (11725865_a_at) / RFU CAMK2N1 (11719241_x_at) / Fold change /veh CAMK2N1 (11719241_x_at) / RFU C5orf56 (11738088_a_at) / Fold change /veh C5orf56 (11738088_a_at) / RFU OLFML3 (11715873_a_at) / Fold change /veh OLFML3 (11715873_a_at) / RFU LOC100653217 /// NTM (11731650_a_at) / Fold change /veh LOC100653217 /// NTM (11731650_a_at) / RFU MAPK11 (11762145_a_at) / Fold change /veh MAPK11 (11762145_a_at) / RFU FIZ1 (11724087_x_at) / Fold change /veh FIZ1 (11724087_x_at) / RFU OASL (11726364_x_at) / Fold change /veh OASL (11726364_x_at) / RFU SOX15 (11748057_x_at) / Fold change /veh SOX15 (11748057_x_at) / RFU CD79A (11719716_a_at) / Fold change /veh CD79A (11719716_a_at) / RFU HIST1H1D (11736915_at) / Fold change /veh HIST1H1D (11736915_at) / RFU CASKIN2 (11723855_a_at) / Fold change /veh CASKIN2 (11723855_a_at) / RFU LOC730098 (11760151_x_at) / Fold change /veh LOC730098 (11760151_x_at) / RFU OR4N2 (11742367_at) / Fold change /veh OR4N2 (11742367_at) / RFU PRRT2 (11749266_a_at) / Fold change /veh PRRT2 (11749266_a_at) / RFU SNX32 (11753110_a_at) / Fold change /veh SNX32 (11753110_a_at) / RFU CDHR5 (11726645_a_at) / Fold change /veh CDHR5 (11726645_a_at) / RFU RCAN1 (11760418_a_at) / Fold change /veh RCAN1 (11760418_a_at) / RFU FAM167A (11723789_a_at) / Fold change /veh FAM167A (11723789_a_at) / RFU FAM26E (11764081_at) / Fold change /veh FAM26E (11764081_at) / RFU ISYNA1 (11749810_s_at) / Fold change /veh ISYNA1 (11749810_s_at) / RFU ACY1 (11761880_at) / Fold change /veh ACY1 (11761880_at) / RFU 11764098_at / Fold change /veh 11764098_at / RFU SAMD14 (11745864_x_at) / Fold change /veh SAMD14 (11745864_x_at) / RFU NPB (11741838_a_at) / Fold change /veh NPB (11741838_a_at) / RFU TMPRSS6 (11731388_a_at) / Fold change /veh TMPRSS6 (11731388_a_at) / RFU KRTAP10-2 (11738614_at) / Fold change /veh KRTAP10-2 (11738614_at) / RFU ARHGAP8 /// PRR5-ARHGAP8 (11727945_x_at) / Fold change /veh ARHGAP8 /// PRR5-ARHGAP8 (11727945_x_at) / RFU KRTAP5-7 /// NADSYN1 (11734609_at) / Fold change /veh KRTAP5-7 /// NADSYN1 (11734609_at) / RFU RASL12 (11751679_a_at) / Fold change /veh RASL12 (11751679_a_at) / RFU CDKN2B (11736163_a_at) / Fold change /veh CDKN2B (11736163_a_at) / RFU PRF1 (11729649_at) / Fold change /veh PRF1 (11729649_at) / RFU, ZNF638 /// ZNF638-IT1 / Fold change vs veh, ZNF638 /// ZNF638-IT1 / RFU, PANK3 / Fold change vs veh, PANK3 / RFU, SH3YL1 / Fold change vs veh, SH3YL1 / RFU, ZEB2 / Fold change vs veh, ZEB2 / RFU, NRIP1 / Fold change vs veh, NRIP1 / RFU, PTTG1IP / Fold change vs veh, PTTG1IP / RFU, CAPN2 / Fold change vs veh, CAPN2 / RFU, MED14 / Fold change vs veh, MED14 / RFU, SNORA58 / Fold change vs veh, SNORA58 / RFU, C1orf63 / Fold change vs veh, C1orf63 / RFU, LRRFIP1 / Fold change vs veh, LRRFIP1 / RFU, NDUFAF7 / Fold change vs veh, NDUFAF7 / RFU, SLC12A2 / Fold change vs veh, SLC12A2 / RFU, IBTK / Fold change vs veh, IBTK / RFU, ESF1 / Fold change vs veh, ESF1 / Fold change vs veh, TMEM50B / RFU, TAOK1 / Fold change vs veh, TAOK1 / RFU, ACBD3 / Fold change vs veh, ACBD3 / RFU, TMA16 / Fold change vs veh, TMA16 / RFU, RWDD3 / Fold change vs veh, RWDD3 / RFU, BCAT1 / Fold change vs veh, BCAT1 / RFU, EDEM3 / Fold change vs veh, EDEM3 / RFU, TMEM33 / Fold change vs veh, TMEM33 / RFU, WDR75 / Fold change vs veh, WDR75 / RFU, AHCTF1 / Fold change vs veh, AHCTF1 / RFU, TFRC / Fold change vs veh, TFRC / RFU, ZDHHC17 / Fold change vs veh, ZDHHC17 / RFU, NOM1 / Fold change vs veh, NOM1 / RFU, ARL8B / Fold change vs veh, ARL8B / RFU, ZBTB11 / Fold change vs veh, ZBTB11 / RFU, TAMM41 / Fold change vs veh, TAMM41 / RFU, KIAA1704 /// LOC100996395 / Fold change vs veh, KIAA1704 /// LOC100996395 / RFU, ING1 / Fold change vs veh, ING1 / RFU, TRMT61B / Fold change vs veh, TRMT61B / RFU, FUBP3 / Fold change vs veh, FUBP3 / RFU, TP53 / Fold change vs veh, TP53 / RFU, TNKS2 / Fold change vs veh, TNKS2 / RFU, ZFP14 / Fold change vs veh, ZFP14 / RFU, ACTR2 / Fold change vs veh, ACTR2 / RFU, PPP3R1 / Fold change vs veh, PPP3R1 / RFU, PIK3R1 / Fold change vs veh, PIK3R1 / RFU, HNRNPA1 / Fold change vs veh, HNRNPA1 / RFU, RNF170 / Fold change vs veh, RNF170 / RFU, ZNF28 / Fold change vs veh, ZNF28 / RFU, RNGTT / Fold change vs veh, RNGTT / RFU, OGT / Fold change vs veh, OGT / RFU, BRD1 / Fold change vs veh, BRD1 / RFU, MARS / Fold change vs veh, MARS / RFU, ZNF655 / Fold change vs veh, ZNF655 / RFU, FAHD1 / Fold change vs veh, FAHD1 / RFU, BDP1 / Fold change vs veh, BDP1 / RFU, LRRCC1 / Fold change vs veh, LRRCC1 / RFU, ARID1A / Fold change vs veh, ARID1A / RFU, ZNF146 / Fold change vs veh, ZNF146 / RFU, ZNF330 / Fold change vs veh, ZNF330 / RFU, GPN3 / Fold change vs veh, GPN3 / RFU, C9orf123 / Fold change vs veh, C9orf123 / RFU, N4BP2L2 / Fold change vs veh, N4BP2L2 / RFU, ARFIP1 / Fold change vs veh, ARFIP1 / RFU, FAM179B / Fold change vs veh, FAM179B / RFU, BCL10 / Fold change vs veh, BCL10 / RFU, UHRF1BP1L / Fold change vs veh, UHRF1BP1L / RFU, BET1 / Fold change vs veh, BET1 / RFU, CNOT2 / Fold change vs veh, CNOT2 / RFU, ZNF268 / Fold change vs veh, ZNF268 / Fold change vs veh, ZNF507 / RFU, DGCR2 / Fold change vs veh, DGCR2 / RFU, WDSUB1 / Fold change vs veh, WDSUB1 / Fold change vs veh, HSP90B1 /// MIR3652 / RFU, ADSS / Fold change vs veh, ADSS / RFU, GK / Fold change vs veh, GK / RFU, ZNF148 / Fold change vs veh, ZNF148 / RFU, TAF9 / Fold change vs veh, TAF9 / RFU, SLC1A5 / Fold change vs veh, SLC1A5 / RFU, SLMO2 / Fold change vs veh, SLMO2 / RFU, ABCC4 / Fold change vs veh, ABCC4 / RFU, LOC101060439 /// RAP1B / Fold change vs veh, LOC101060439 /// RAP1B / RFU, RFX7 / Fold change vs veh, RFX7 / RFU, GTPBP10 / Fold change vs veh, GTPBP10 / RFU, CNEP1R1 / Fold change vs veh, CNEP1R1 / RFU, BIVM-ERCC5 /// ERCC5 / Fold change vs veh, BIVM-ERCC5 /// ERCC5 / RFU, ILF3 / Fold change vs veh, ILF3 / RFU 11762660_at / Fold change /veh 11762660_at / RFU VCAN (11757783_s_at) / Fold change /veh VCAN (11757783_s_at) / RFU DDX43 (11728927_at) / Fold change /veh DDX43 (11728927_at) / RFU KRT8 (11758188_x_at) / Fold change /veh KRT8 (11758188_x_at) / RFU NKD1 (11759106_at) / Fold change /veh NKD1 (11759106_at) / RFU SRD5A1 (11742802_a_at) / Fold change /veh SRD5A1 (11742802_a_at) / RFU TPSAB1 /// TPSB2 (11721975_s_at) / Fold change /veh TPSAB1 /// TPSB2 (11721975_s_at) / RFU GSTM3 (11746129_a_at) / Fold change /veh GSTM3 (11746129_a_at) / RFU IL23R (11737362_x_at) / Fold change /veh IL23R (11737362_x_at) / RFU TMEM51 (11727254_a_at) / Fold change /veh TMEM51 (11727254_a_at) / RFU PIWIL2 (11732686_x_at) / Fold change /veh PIWIL2 (11732686_x_at) / RFU ORM1 (11744905_x_at) / Fold change /veh ORM1 (11744905_x_at) / RFU CCDC152 (11743942_at) / Fold change /veh CCDC152 (11743942_at) / RFU ECM1 (11717891_a_at) / Fold change /veh ECM1 (11717891_a_at) / RFU IL23R (11748794_a_at) / Fold change /veh IL23R (11748794_a_at) / RFU TNFAIP8L3 (11732012_x_at) / Fold change /veh TNFAIP8L3 (11732012_x_at) / RFU MBOAT4 (11741988_at) / Fold change /veh MBOAT4 (11741988_at) / RFU 11764193_at / Fold change /veh 11764193_at / RFU TMEM53 (11763286_at) / Fold change /veh TMEM53 (11763286_at) / RFU MAGEB2 (11727129_at) / Fold change /veh MAGEB2 (11727129_at) / RFU TMEM200A (11744735_a_at) / Fold change /veh TMEM200A (11744735_a_at) / RFU CCDC152 (11751479_a_at) / Fold change /veh CCDC152 (11751479_a_at) / RFU FAM211A (11726209_a_at) / Fold change /veh FAM211A (11726209_a_at) / RFU RGS16 (11746705_a_at) / Fold change /veh RGS16 (11746705_a_at) / RFU VCAN (11755009_s_at) / Fold change /veh VCAN (11755009_s_at) / RFU RHOB (11743442_s_at) / Fold change /veh RHOB (11743442_s_at) / RFU RGS16 (11720943_a_at) / Fold change /veh RGS16 (11720943_a_at) / RFU RGS16 (11720944_at) / Fold change /veh RGS16 (11720944_at) / RFU, VPS4B / Fold change vs veh, VPS4B / RFU, CREB1 / Fold change vs veh, CREB1 / RFU, DNAJC13 / Fold change vs veh, DNAJC13 / RFU, GNAQ / Fold change vs veh, GNAQ / RFU, CDK5R1 / Fold change vs veh, CDK5R1 / RFU, ZRANB3 / Fold change vs veh, ZRANB3 / RFU, CUL4A / Fold change vs veh, CUL4A / RFU, CCNY / Fold change vs veh, CCNY / RFU, UFL1 / Fold change vs veh, UFL1 / RFU, COG3 / Fold change vs veh, COG3 / RFU, DIAPH2 / Fold change vs veh, DIAPH2 / RFU, SKA2 / Fold change vs veh, SKA2 / RFU, AFF3 / Fold change vs veh, AFF3 / RFU, LMF1 / Fold change vs veh, LMF1 / RFU, IPO11 / Fold change vs veh, IPO11 / RFU, DFFB / Fold change vs veh, DFFB / RFU, FOXP1 / Fold change vs veh, FOXP1 / RFU, CARD8 / Fold change vs veh, CARD8 / RFU, STRN3 / Fold change vs veh, STRN3 / RFU, ADK / Fold change vs veh, ADK / RFU, RASSF2 / Fold change vs veh, RASSF2 / RFU, WIPF1 / Fold change vs veh, WIPF1 / RFU, LARP1B / Fold change vs veh, LARP1B / RFU, RASA1 / Fold change vs veh, RASA1 / RFU, RB1 / Fold change vs veh, RB1 / RFU, PPFIA1 / Fold change vs veh, PPFIA1 / RFU, MAT2A / Fold change vs veh, MAT2A / RFU, CCT5 / Fold change vs veh, CCT5 / RFU, WDR92 / Fold change vs veh, WDR92 / RFU, CUX1 / Fold change vs veh, CUX1 / RFU, TTC7A / Fold change vs veh, TTC7A / RFU, TMEM135 / Fold change vs veh, TMEM135 / RFU, DEPTOR / Fold change vs veh, DEPTOR / RFU, CPM / Fold change vs veh, CPM / RFU, DNAJB6 / Fold change vs veh, DNAJB6 / RFU, CACNA2D3 / Fold change vs veh, CACNA2D3 / RFU, DTX4 / Fold change vs veh, DTX4 / RFU, TFCP2 / Fold change vs veh, TFCP2 / RFU, GMCL1 /// GMCL1P1 / Fold change vs veh, GMCL1 /// GMCL1P1 / RFU, AEBP2 / Fold change vs veh, AEBP2 / RFU, SNHG1 /// SNORD22 /// SNORD25 /// SNORD26 /// SNORD27 /// SNORD28 /// SNORD29 /// SNORD31 / Fold change vs veh, SNHG1 /// SNORD22 /// SNORD25 /// SNORD26 /// SNORD27 /// SNORD28 /// SNORD29 /// SNORD31 / Fold change (Aza/veh), C12orf56 (ProbeSet 11735607_a_at) / Fold change (ACY-1035/veh), C12orf56 (ProbeSet 11735607_a_at) / Fold change (Aza/veh), FGFR1OP (ProbeSet 11751329_s_at) / Fold change (ACY-1035/veh), FGFR1OP (ProbeSet 11751329_s_at) / Fold change (Aza/veh), VPS36 (ProbeSet 11739960_a_at) / Fold change (ACY-1035/veh), VPS36 (ProbeSet 11739960_a_at) / RFU SYPL1 (11715823_x_at) / Fold change /veh SYPL1 (11715823_x_at) / RFU IGFBP7 (11715501_s_at) / Fold change /veh IGFBP7 (11715501_s_at) / RFU REEP3 (11722064_at) / Fold change /veh REEP3 (11722064_at) / RFU IGLL1 (11728026_x_at) / Fold change /veh IGLL1 (11728026_x_at): dose or concentration left out as unconfirmed
Conditions: ProbeSet 11728271_at; LIST B

Structure (SMILES): Nc1ncn([C@@H]2O[C@H](CO)[C@@H](O)[C@H]2O)c(=O)n1 [azacitidine]
- RFU, ZNF330: 711.81 RFU

Source: paper PMC5218480 (PLoS ONE, 2017)
